These results are taken from patent publication EP0099438A1, “2-Functionalised diaryl as-triazines useful in therapy” (PIERRE FABRE S.A., priority 1982, dated 1984).

Data set [1] can be described thus: Acute oral toxicity in mice (LD50, method of Miller and Tainter). Particulars: in vivo; mouse about 20 g, oral administration; read-out: DL50 voie orale. The source says: L'étude de la toxicité a été effectuée chez la souris conventionnelle pesant environ 20 grammes.
Les substances ont été administrées par voie orale. Les doses létales 50 sont exprimées en mg/kg et ont été calculées selon la méthode de MILLER et TAINTER, Proc. Scc. Exper. Biol. Med. 1944, 57, 261.

Data set [2] deals with souris. The experiment in a line: Phenylbenzoquinone (PBQ) writhing test (Siegmund), analgesic activity. The data set is classed as in vivo. Particulars: po, 0.5 h; mouse, per os 30 minutes before intraperitoneal PBQ injection; read-out: DE50 (the source's name). Here is the method:
L'activité sur le test des contorsions à la phényl benzoquinone (PBQ) selon SIEGMUND et Coll., J. Pharm. Exptl. Ther. 1957, 119, 453, a été déterminée après administration du produit per os; la dose est exprimée en mg/kg chez la souris 30 minutes avant l'injection intra-péritonéale de l'agent algogène.
Les résultats sont exprimés en pourcentage de variation du nombre de contorsions. Pour les molécules les plus actives nous avons déterminé la DE50, les résultats sont répertoriés dans le tableau suivant : […]

A short description of data set [3]: Qualitative solubility in water and solvents. The data set is classed as physicochemical. Particulars: for Insoluble dans: media in which the compound is insoluble; for Soluble dans: media in which the compound is soluble.
The test system of data set [4] is P.R.P. de LAPIN. The experiment in a line: In vitro platelet anti-aggregation, arachidonic acid-induced, in rabbit PRP. The data set is classed as cell-based. Particulars: dissolved in PEG 400, incubated 1 minute with PRP before arachidonic acid 2 x 10^-4M; ranking in words. An excerpt: Les produits sont dissous dans le PEG 400, puis additionnés au P.R.P. de LAPIN puis incubés une minute avant l'addition d'agent agrégant (acide arachidonique 2 x 10^-4M). Le produit le plus actif est le ST 938.

Molecules are shown by their SMILES.

Consider `COc1ccc(-c2nc(=O)n(C(C)CN(C)C)nc2-c2ccc(OC)cc2)cc1` (stereo not shown) [ST 766], for which the LD50 in data set [1] was 750 mg/kg. For the same molecule, the ED50 in data set [2] is 11 mg/kg. Also, in data set [3], the Insoluble dans result is given as “l'eau, les bases diluées, le benzène et l'éther” and the Soluble dans result is listed as “les acides dilués, les alcools, le chlorure de méthylène et le chloroforme”.
Consider `C=COCCn1nc(-c2ccc(OC)cc2)c(-c2ccc(OC)cc2)nc1=O` [ST 777, Oxo-3 vinyloxyéthyl-2 di(paraméthoxyphényl)-5-6 as triazine], for which, in data set [1], the LD50 is over 1000 mg/kg. The ED50 in data set [2] was determined as 10 mg/kg. In addition, in data set [3], the Insoluble dans result is “l'eau, les bases et les acides dilués et l'éther” and the Soluble dans result is recorded as “les alcools, le benzène, le chlorure de méthylène et le chloroforme”.
Take `CN(C)c1ccc(-c2nc(=O)n(CC(N)=O)nc2-c2ccc(N(C)C)cc2)cc1` [ST 812, Oxo-3 acétamido-2 di(paradiméthylaminophényl)-5-6 as triazine]: in data set [1], the LD50 is over 1000 mg/kg. Moreover, in data set [2], the ED50 came out at 12 mg/kg. In data set [3], the Insoluble dans result is reported as “l'eau, les bases diluées, les alcools, le benzène et l'éther” and the Soluble dans entry is on record as “les acides dilués et le chlorure de méthylène”.
With `CN(C)c1ccc(-c2nc(=O)n(CC(O)CO)nc2-c2ccc(N(C)C)cc2)cc1` (stereo not shown) [ST 886], the LD50 in data set [1] was over 1000 mg/kg. Besides, the ED50 in data set [2] was found to be 5.6 mg/kg. Further, in data set [3], the Insoluble dans entry is given as “l'eau et les bases diluées, l'éther” and the Soluble dans result is “les acides dilués aqueux, les alcools, le benzène, le chlorure de méthylène et le chloroforme”.
For `COc1ccc(-c2nc(=O)n(CCCCl)nc2-c2ccc(OC)cc2)cc1` [ST 938, Oxo-3 chloropropyl-2 di(paraméthoxyphényl)-5-6 as triazine], the LD50 in data set [1] was at least 1000 mg/kg. For the same molecule, the “Propriétés antiagrégantes (in vitro)” value in data set [4] was “le plus actif”. Besides, in data set [3], the Insoluble dans entry is reported as “l'eau, les bases et les acides dilués et l'éther” and the Soluble dans result is “les alcools, le benzène, le chlorure de méthylène et le chloroforme”.
For the molecule `COc1ccc(-c2nc(=O)n(CCO)nc2-c2ccc(OC)cc2)cc1` [ST 791, Oxo-3 hydroxyéthyl-2 di(paraméthoxyphényl)-5-6 as triazine], in data set [1], the LD50 was over 1000 mg/kg. The ED50 in data set [2] turned out to be 9 mg/kg. Further, in data set [3], the Insoluble dans result was “l'eau, les bases et les acides dilués et l'éther” and the Soluble dans entry was “les alcools, le benzène, le chlorure de méthylène et le chloroforme”.
In the case of `CN(C)c1ccc(-c2nc(=O)n(CCCCl)nc2-c2ccc(N(C)C)cc2)cc1` [ST 882, Oxo-3 γ-chloropropyl-2 di(paradiméthyiaminophényl) 5-6 as triazine], the LD50 in data set [1] was over 1000 mg/kg. Further, in data set [2], the ED50 was found to be 4.6 mg/kg. Also, in data set [3], the Insoluble dans result is “l'eau et les bases diluées, et l'éther” and the Soluble dans result was “les acides dilués aqueux, les alcools, le benzène, le chlorure de méthylène et le chloroforme”.
Consider `CN(C)c1ccc(-c2nc(=O)n(CCOC(=O)c3cccnc3)nc2-c2ccc(N(C)C)cc2)cc1` [ST 883, Oxo-3 nicotinoyloxyéthyl-2 di(paradiméthylaminophényl) 5-6 as triazine], for which, in data set [1], the LD50 is over 1000 mg/kg. In data set [2], the ED50 was found to be 3.1 mg/kg. For the same molecule, in data set [3], the Insoluble dans result is recorded as “l'eau et les bases diluées, l'éther” and the Soluble dans result was “les acides dilués, les alcools, le benzène, le chloroforme et le chlorure de méthylène”.
`COc1ccc(-c2nc(=O)n(CCCN3CCN(C)CC3)nc2-c2ccc(OC)cc2)cc1` [ST 881, Dichlorhydratede l'oxo-3 N méthyl piperazinyl-3' propyl-2 di(paraméthoxyphényl)-5-6 as triazine]: the LD50 in data set [1] was over 1000 mg/kg. The ED50 in data set [2] amounted to 6.7 mg/kg. Moreover, in data set [3], the Insoluble dans result is “le benzène, le chlorure de méthylène et le chloroforme” and the Soluble dans entry is recorded as “l'eau, les acides dilués et les alcools”.
Regarding `CN(C)c1ccc(-c2nc(=O)n(CCO)nc2-c2ccc(N(C)C)cc2)cc1` [ST 817, Oxo-3 hydroxyéthyl-2 di(paradimétnylaminophényl)-5-6 as triazine], in data set [1], the LD50 is over 1000 mg/kg. Further, the ED50 in data set [2] came to 1.5 mg/kg. Also, in data set [3], the Insoluble dans entry was “les bases diluées aqueuses, l'eau, le benzène et l'éther” and the Soluble dans result is listed as “les acides dilués, les alcools, le chlorure de méthylène et le chloroforme”.
For the molecule `C=CCNCCCn1nc(-c2ccc(OC)cc2)c(-c2ccc(OC)cc2)nc1=O` [ST 876, Oxalatede l'oxo-3 γallylamino propyl-2 di(paraméthoxyphényl)-5-6 as triazine], the LD50 in data set [1] was 750 mg/kg. In data set [3], the Insoluble dans result is reported as “le benzène, l'éther et le chloroforme” and the Soluble dans result was “l'eau, les alcools, et le chlorure de méthylène”.
Turning to `COc1ccc(-c2nc(=O)n(CCN3CCOCC3)nc2-c2ccc(OC)cc2)cc1` [ST 728, Oxo-3 morpholino éthyl-2 di(paraméthoxyphényl)-5-6 as triazine], in data set [1], the LD50 was over 1000 mg/kg. In addition, in data set [3], the Insoluble dans entry is recorded as “l'eau, les bases diluées et l'éther” and the Soluble dans result is “les acides, les alcools, le benzène, le chlorure de méthylène et le chloroforme”.
Take `CCOC(=O)C(C(=O)OCC)n1nc(-c2ccc(OC)cc2)c(-c2ccc(OC)cc2)nc1=O` [ST 824, Oxo-3 diéthylmalonyl-2 di(paraméthoxyphényl)-5-6 as triazine]: the LD50 in data set [1] was over 1000 mg/kg. In data set [3], the Insoluble dans result is listed as “l'eau, les bases et les acides dilués et l'éther” and the Soluble dans result is recorded as “les alcools, le benzène, le chlorure de méthylène et le chloroforme”.
